According to patent US20070203098A1, “Pten Inhibitors” (priority 2004, published 2007):
Several values for one entry are separate records, joined by “and”; a condition that tells them apart may be missing. Equal values may be shown once. Read-outs that look alike come from different tables or passages of the source. Marks after values point to notes of the source that are not given here. Blank lines part the entries; values can stand above or below the compound they belong to.

Columns and labels:
[1] = system: mouse aortic ring; experiment: In Vitro Aortic Ring Angiogenesis Assay; assay type: cell-based; details: 120 h; for activity at 40 µM: 5 days
[2] = target: T1, PTEN (Homo sapiens, UniProt P60484); experiment: PTEN Inhibition Assay: General Screening; assay type: biochemical
T1 sequence (P60484 whole entry, species assumed): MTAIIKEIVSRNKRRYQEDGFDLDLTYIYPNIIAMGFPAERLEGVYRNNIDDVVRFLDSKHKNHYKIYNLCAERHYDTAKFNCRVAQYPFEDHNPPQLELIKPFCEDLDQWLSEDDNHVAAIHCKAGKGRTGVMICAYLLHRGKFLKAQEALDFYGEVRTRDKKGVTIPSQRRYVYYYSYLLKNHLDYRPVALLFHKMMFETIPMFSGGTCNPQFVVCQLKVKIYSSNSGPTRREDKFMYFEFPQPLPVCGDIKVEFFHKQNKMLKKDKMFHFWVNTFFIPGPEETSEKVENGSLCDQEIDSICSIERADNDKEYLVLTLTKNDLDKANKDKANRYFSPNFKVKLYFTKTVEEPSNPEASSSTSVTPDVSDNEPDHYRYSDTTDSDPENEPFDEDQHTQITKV

[3] = target: T1, PTEN; experiment: PTEN Inhibition Assay: IC50 Determinations; assay type: biochemical
[4] = target: T2, PTP1B (Homo sapiens, UniProt P18031); experiment: PTP1B Inhibition Assay: IC50 Determinations; assay type: biochemical
T2 sequence (P18031 1-435): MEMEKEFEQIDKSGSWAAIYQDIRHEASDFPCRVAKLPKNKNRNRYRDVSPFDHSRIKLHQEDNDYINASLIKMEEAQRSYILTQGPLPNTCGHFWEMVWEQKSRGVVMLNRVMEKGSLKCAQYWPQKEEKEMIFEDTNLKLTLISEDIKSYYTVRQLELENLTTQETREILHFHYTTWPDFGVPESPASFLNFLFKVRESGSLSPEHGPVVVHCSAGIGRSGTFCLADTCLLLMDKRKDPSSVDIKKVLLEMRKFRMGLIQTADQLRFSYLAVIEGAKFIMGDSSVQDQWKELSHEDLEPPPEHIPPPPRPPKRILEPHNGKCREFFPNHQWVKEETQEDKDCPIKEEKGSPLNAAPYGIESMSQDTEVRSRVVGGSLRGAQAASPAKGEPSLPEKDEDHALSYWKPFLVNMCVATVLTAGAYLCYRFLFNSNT

[5] = system: human brain endothelial cells (HBEC); experiment: MTT Assay for Determining Toxicity, HBEC; assay type: cell-based; details: Endothelial cell, read-out: Viability IC50 HBEC
[6] = system: human non-small cell lung cancer cells (H1299); experiment: MTT Assay for Determining Toxicity, H1299; assay type: cell-based; details: read-out: Viability IC50 H1299
[7] = system: human prostate cancer cells (PC-3); experiment: MTT Assay for Determining Toxicity, PC-3; assay type: cell-based; details: read-out: Viability IC50 PC-3
[8] = system: MEF PTEN wt; experiment: Migration Assay, MEF PTEN wt; assay type: cell-based, mouse
[9] = system: MEF PTEN null; experiment: Migration Assay, MEF PTEN null; assay type: cell-based, mouse
[10] = system: U87MG PTEN wt; assay type: cell-based
[11] = system: U87MG PTEN null; assay type: cell-based
[12] = system: HBEC (Human Brain Endothelial Cells); experiment: Wound Healing Assay; assay type: cell-based
[13] = system: RAC1-GTP; assay type: cell-based, mouse
[14] = target: GST-PTEN fusion protein (Homo sapiens, UniProt P60484); experiment: Immobilized PTEN; assay type: biochemical; details: PLV substrate
GST-PTEN fusion protein, sequence (P60484 whole entry, the tested form may be a part): as the sequence (P60484 whole entry, species assumed) above
Description: In the PTEN inhibition assay, to exclude the possibility that PTEN inhibitor candidates interact with the unilameller PIP3 lipid vesicle (PLV) to block PTEN and artificially mimic PTEN inhibition, PTEN was bound to a solid support and treated with inhibitor, the inhibitor washed away and then the capability of the bound PTEN to dephosphorylate PLV was determined. […] The gel was centrifuged, washed 3 times and centrifuged again. […] Then a 100 ul portion of malachite green buffer (Upstate, Charlottesville, Va.) was added to develop the color in the dark at room temperature. […] Optical density measurements were converted to nanomoles of phosphate detected using a phosphate-malachite green standard calibration curve.

[15] = read-out: Branch (% of control)
[16] = read-out: % Inhibition @ 250 uM
[17] = MTT, serum-free, 2 hours with compound
[18] = NCI-H1299, MTT, serum-free, 2 hours with compound
[19] = relative to no treatment control
[20] = 250 uM, Table 27 isatins, read-out: % Inhibition @250 uM

SMILES: O=c1cc(N2CCOCC2)oc2c(-c3ccccc3)cccc12 [LY294002, reference compound]
activity at 40 µM [1, 15]: 0 to 0.8%
activity at 40 µM ([1]; read-out: Stem (% of control)): 0 to 2%

SMILES: CC(C)(C)C(=O)Nc1ccc2c(c1)C(=O)C(=O)c1ccccc1-2 [SF1670-000, N-(9,10-Dioxo-9,10-dihydro-phenanthren-2-yl)-2,2-dimethyl-propionamide]
inhibition at 250 µM [2, 16]: 100%
IC50 [3]: 2 µM
IC50 [4]: 17 µM
IC50 ([5]; 2 h): 5 µM
IC50 ([6]; NCI-H1299, 2 h): 10 µM
IC50 ([7]; 2 h): 44 µM
activity at 5 µM [1, 15]: 126 to 166%
activity at 5 µM ([1]; read-out: Stem (% of control)): 107 to 196%
migration number, Average [8]: 16.00 and 22.60 and 31.20 and 28.70 and 26.80
migration number, Average [9]: 47.20 and 49.30 and 49.90 and 47.60 and 45.90
concentration of maximal induction of migration [10]: 30 nM
migration number, Average [11]: 60.90 and 57.20
HBEC migration across the wound, in words [12]: migrate faster
integrin induced activation of RAC to its GTP bound state [13]: augmented integrin induced activation of RAC

SMILES: O=C1C(=O)c2cccnc2-c2ncccc21 [SF1720-000, 1,10-phenanthroline-5,6-dione]
IC50 ([3]; Table 1, read-out: PTEN Inhibition IC50): 5 µM
IC50 ([3]; Table 25, read-out: PTEN IC50): 5 µM
IC50 ([3]; Table 29, read-out: PTEN IC50): 5 µM
selective inhibition for PTEN over PTP1B ([3]; ratio of IC50's): more than 50 fold
IC50 ([4]; Table 29, read-out: PTP1B IC50): > 250 µM
IC50 [5, 17]: 1 µM
IC50 [6, 18]: < 1 µM
IC50 [7, 17]: 7 µM
migration number, Average ([8]; 125 uM, Table 4): 18.20
migration number, Average ([8]; 250 uM, Table 4): 11.90
migration number, Average ([9]; 125 uM, Table 4): 36.50
migration number, Average ([9]; 250 uM, Table 4): 37.30
distance the cells have grown out ([12]; 10 nM, 2 hrs): 0.03* millimeters
distance the cells have grown out ([12]; 10 nM, 4 hrs): 0.04667 millimeters
distance the cells have grown out ([12]; 10 nM, 6 hrs): 0.08* millimeters
distance the cells have grown out ([12]; 10 nM, 24 hrs): 0.155* millimeters
distance the cells have grown out ([12]; 50 nM, 2 hrs): 0.03667 millimeters
distance the cells have grown out ([12]; 50 nM, 4 hrs): 0.04667 millimeters
distance the cells have grown out ([12]; 50 nM, 6 hrs): 0.05667* millimeters
distance the cells have grown out ([12]; 50 nM, 24 hrs): 0.1583* millimeters
distance the wound edge had moved forward ([12]; 0.111 uM, 2 hrs): 0.04333 mm
distance the wound edge had moved forward ([12]; 0.111 uM, 4 hrs): 0.05667 mm
distance the wound edge had moved forward ([12]; 0.111 uM, 6 hrs): 0.06833 mm
distance the cells have grown out ([12]; 250 nM, 2 hrs): 0.025 millimeters
distance the cells have grown out ([12]; 250 nM, 4 hrs): 0.03667 millimeters
distance the cells have grown out ([12]; 250 nM, 6 hrs): 0.05167* millimeters
distance the cells have grown out ([12]; 250 nM, 24 hrs): 0.1117* millimeters
distance the wound edge had moved forward ([12]; 0.333 uM, 2 hrs): 0.05 mm
distance the wound edge had moved forward ([12]; 0.333 uM, 4 hrs): 0.085 mm
distance the wound edge had moved forward ([12]; 0.333 uM, 6 hrs): 0.1333 mm
HBEC migration across the wound, in words [12, 19]: migrate faster
inorganic phosphate detected, oriPTEN + 1720, Average ([14]; PTEN in solution): 0.1028 nmol
inorganic phosphate detected, oriPTEN + 1720 ([14]; PTEN in solution, single determinations): 0.0995 nmol and 0.106 nmol
inorganic phosphate detected, PTEN gel/1720 bound, Average ([14]; immobilized PTEN pretreated 1 hour, washed): 0.1142 nmol
inorganic phosphate detected, PTEN gel/1720 bound ([14]; immobilized PTEN pretreated 1 hour, washed, single determinations): 0.1191 nmol and 0.1093 nmol

inhibition at 250 µM [2, 20]: 99.4%
IC50 ([3]; Table 29, read-out: PTEN IC50): 2.2 µM
IC50 ([4]; Table 29, read-out: PTP1B IC50): 16.3 µM
SMILES: O=C1Nc2ccc([N+](=O)[O-])cc2C1=O [SF1770-000, 5-nitroindoline-2,3-dione]
IC50 [5, 17]: > 1000 µM
IC50 [6, 18]: 695 µM
IC50 [7, 17]: > 1000 µM
migration number, Average ([8]; 125 uM, Table 4): 22.90
migration number, Average ([8]; 250 uM, Table 4): 22.40
migration number, Average ([9]; 125 uM, Table 4): 42.30
migration number, Average ([9]; 250 uM, Table 4): 41.50
distance the cells have grown out ([12]; 10 nM, 2 hrs): 0.02667* millimeters
distance the cells have grown out ([12]; 10 nM, 4 hrs): 0.045* millimeters
distance the cells have grown out ([12]; 10 nM, 6 hrs): 0.065* millimeters
distance the cells have grown out ([12]; 10 nM, 24 hrs): 0.1483* millimeters
distance the cells have grown out ([12]; 50 nM, 2 hrs): 0.05 millimeters
distance the cells have grown out ([12]; 50 nM, 4 hrs): 0.06 millimeters
distance the cells have grown out ([12]; 50 nM, 6 hrs): 0.075 millimeters
distance the cells have grown out ([12]; 50 nM, 24 hrs): 0.2233* millimeters
distance the cells have grown out ([12]; 250 nM, 2 hrs): 0.04 millimeters
distance the cells have grown out ([12]; 250 nM, 4 hrs): 0.05167 millimeters
distance the cells have grown out ([12]; 250 nM, 6 hrs): 0.06667 millimeters
distance the cells have grown out ([12]; 250 nM, 24 hrs): 0.2017* millimeters
distance the cells have grown out ([12]; 1000 nM, 2 hrs): 0.04 millimeters
distance the cells have grown out ([12]; 1000 nM, 4 hrs): 0.06167 millimeters
distance the cells have grown out ([12]; 1000 nM, 6 hrs): 0.07667 millimeters
distance the cells have grown out ([12]; 1000 nM, 24 hrs): 0.2417 millimeters
HBEC migration across the wound, in words [12, 19]: migrate faster

SMILES: Cc1ccc(C(=O)Nc2ccc3c(c2)C(=O)C(=O)c2ccccc2-3)cc1 [SF1779-000]
inhibition at 250 µM [2, 16]: 99.8%
IC50 [3]: 0.342 µM
IC50 [4]: 0.233 µM
activity at 5 µM [1, 15]: 112 to 138%
activity at 5 µM ([1]; read-out: Stem (% of control)): 92 to 125%
migration number, Average [8]: 20.60 and 18.00
migration number, Average [9]: 47.30 and 43.50

SMILES: O=C(O)C(=O)Nc1ccc2c(c1)C(=O)C(=O)c1ccccc1-2 [SF1806-000]
inhibition at 250 µM [2, 16]: 98.1%
IC50 [3]: 12.1 µM
IC50 [4]: 1 to 10 µM

SMILES: O=C1Nc2ccc(Br)cc2C1=O [SF1814-000]
inhibition at 250 µM [2, 20]: 97.6%
IC50 [3]: 44.9 µM
IC50 [4]: 10 to 100 µM

inhibition at 250 µM [2, 20]: 95%
IC50 ([3]; Table 29, read-out: PTEN IC50): 80.7 µM
IC50 ([4]; Table 29, read-out: PTP1B IC50): 10 to 100 µM
SMILES: O=C1Nc2ccc(Cl)cc2C1=O [SF1816-000]

inhibition at 250 µM [2, 20]: 97.8%
IC50 ([3]; Table 29, read-out: PTEN IC50): 31.7 µM
IC50 ([4]; Table 29, read-out: PTP1B IC50): < 10 µM
SMILES: O=C1Nc2ccc(Br)cc2C1O (stereo not shown) [SF1818-000]

inhibition at 250 µM [2, 20]: 96%
IC50 ([3]; Table 29, read-out: PTEN IC50): 33.6 µM
IC50 ([4]; Table 29, read-out: PTP1B IC50): < 10 µM
SMILES: O=C1Nc2ccc(I)cc2C1=O [SF1819-000]

inhibition at 250 µM [2, 20]: 94.6%
IC50 ([3]; Table 29, read-out: PTEN IC50): 61.9 µM
IC50 ([4]; Table 29, read-out: PTP1B IC50): 10 to 100 µM
SMILES: O=C1Nc2ccc(F)cc2C1=O [SF1820-000]
